Measurements as given in patent publication US12503452B2 (Curza Global, LLC, priority 2019, dated 2025).
Counter-ions that a name gives are not always drawn. Like-named read-outs stand apart in the source and are kept apart here.

Legend:
[1] = system: S. aureus (Sa); experiment: Broth microdilution minimum inhibitory concentration (MIC); assay type: cell-based; conditions: for MIC: Staphylococcus aureus, read-out: Sa + bicarb MIC
Summary of the method: (§1)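 Two-fold compound series, 8 points in triplicate; medium CAMHB ± NaHCO3 (6.25 or 25 mM final) or ± 0–50% heat-inactivated human serum; inoculum 5×10^4 CFU/well; growth-method 0.5 McFarland suspensions; modified CLSI M07-A9.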

[2] = system: P. aeruginosa (Pa); experiment: as above; assay type: cell-based; conditions: for MIC: Pseudomonas aeruginosa, read-out: Pa MIC + bicarb
Summary of the method: as §1

[3] = system: A. baumannii (Ab); experiment: as above; assay type: cell-based; conditions: for MIC: Acinetobacter baumannii, read-out: Ab + bicarb MIC
Summary of the method: as §1

[4] = system: E. faecalis (Ef); experiment: as above; assay type: cell-based; conditions: for MIC: Enterococcus faecalis, read-out: Ef + bicarb MIC
Summary of the method: as §1

[5] = system: E. coli (Ec); experiment: as above; assay type: cell-based; conditions: for MIC: Escherichia coli, read-out: E. coli + bicarb MIC
Summary of the method: as §1

[6] = molecular target: Rabbit Reticulocyte Lysate (eukaryotic protein synthesis); experiment: Rabbit reticulocyte lysate luciferase assay (inhibition of eukaryotic protein synthesis); assay type: biochemical; conditions: read-out: Rabbit reticulocyte IC50 (μM/% inhib.)
Summary of the method: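 Compounds were tested in 8-point 2-fold dilution series for blocking luciferase synthesis in nuclease-treated rabbit reticulocyte lysate (30° C., 90 minutes). Luminescence read-out, corrected by no-RNA background, was expressed as % inhibition against water-only reactions.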

[7] = system: E. coli S30 extract (bacterial protein synthesis); experiment: E. coli S30 extract coupled transcription-translation luciferase assay (inhibition of bacterial protein synthesis); assay type: biochemical; conditions: read-out: S30 IC50 (μM/% inhib.)
Summary of the method: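 Luminescent read-out of luciferase made from pBESTluc DNA by E. coli S30 extract after 1 h at 37 °C with compound in an 8-point 2-fold series. Background came from no-DNA reactions. Percent inhibition was calculated against water-only controls.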

[8] = class by IC50 or % inhibition @ 1 μM
[9] = S. aureus, growth medium supplemented with sodium bicarbonate
[10] = P. aeruginosa, growth medium supplemented with sodium bicarbonate
[11] = A. baumannii, growth medium supplemented with sodium bicarbonate
[12] = E. faecalis, growth medium supplemented with sodium bicarbonate
[13] = E. coli, growth medium supplemented with sodium bicarbonate
[14] = S. aureus, growth medium with sodium bicarbonate
[15] = P. aeruginosa, growth medium with sodium bicarbonate
[16] = A. baumannii, growth medium with sodium bicarbonate
[17] = E. faecalis, growth medium with sodium bicarbonate
[18] = E. coli, growth medium with sodium bicarbonate

CC(C)(N)C(=O)N1CCN(C(=O)Nc2ccn(-c3ccc(CN(CC4CC4)C4CCC(N)CC4)c(OC(F)(F)F)c3)c(=O)n2)CC1 (stereo not shown) [Compound 331, hydrochloride salt]
MIC [1]: 8 to 32 mg/L | MIC [2]: > 32 mg/L | MIC [3]: > 32 mg/L | MIC [4]: 8 to 32 mg/L | MIC [5]: < 8 mg/L | IC50 [6, 8]: > 1 µM | IC50 [7, 8]: < 0.5 µM

CC(C)(N)C(=O)N1CCN(C(=O)Nc2ccn(-c3ccc(CN[C@@H]4CC[C@H](N)C4)cc3)c(=O)n2)CC1 [Compound 114]
MIC [1, 9]: > 32 mg/L | MIC [2, 10]: > 32 mg/L | MIC [3, 11]: > 32 mg/L | MIC [4, 12]: > 32 mg/L | MIC [5, 13]: < 8 mg/L | IC50 [6, 8]: > 1 µM | IC50 [7, 8]: < 0.5 µM

CC1(CN)CCN(Cc2ccc(-n3ccc(NC(=O)N4CCN(C(=O)C(C)(C)N)CC4)nc3=O)cc2)CC1 [Compound 249]
MIC [1, 14]: < 8 mg/L | MIC [2, 15]: > 32 mg/L | MIC [3, 16]: > 32 mg/L | MIC [4, 17]: 8 to 32 mg/L | MIC [5, 18]: < 8 mg/L | IC50 [6, 8]: > 1 µM | IC50 [7, 8]: < 0.5 µM

CN(Cc1ccc(-n2ccc(NC(=O)N3CCN(C(=O)C(C)(C)N)CC3)nc2=O)cc1)CC1CNC1 [Compound 111]
MIC [1, 9]: 8 to 32 mg/L | MIC [2, 10]: > 32 mg/L | MIC [3, 11]: > 32 mg/L | MIC [4, 12]: > 32 mg/L | MIC [5, 13]: 8 to 32 mg/L | IC50 [6, 8]: > 1 µM | IC50 [7, 8]: 0.5 to 1 µM

C[C@@H]1CN(C(=O)C(C)(C)N)CCN1C(=O)Nc1ccn(-c2ccc(CN3CCC(CN)CC3)cc2)c(=O)n1 [Compound 82]
MIC [1, 9]: < 8 mg/L | MIC [2, 10]: > 32 mg/L | MIC [3, 11]: 8 to 32 mg/L | MIC [4, 12]: < 8 mg/L | MIC [5, 13]: < 8 mg/L | IC50 [6, 8]: > 1 µM | IC50 [7, 8]: < 0.5 µM

CC(Cc1ccc(-n2ccc(NC(=O)N3CCN(C(=O)C(C)(C)N)CC3)nc2=O)cc1)N(C)C[C@H]1C[C@@H](N)C1 (stereo partly shown) [Compound 160]
MIC [1, 9]: < 8 mg/L | MIC [2, 10]: > 32 mg/L | MIC [3, 11]: > 32 mg/L | MIC [4, 12]: < 8 mg/L | MIC [5, 13]: < 8 mg/L | IC50 [6, 8]: > 1 µM | IC50 [7, 8]: < 0.5 µM

CC(C)(N)C(=O)N1CCN(C(=O)Nc2ccn(-c3ccc(C[C@H](N)C(=O)N4CC(N)C4)cc3)c(=O)n2)CC1 [Compound 146]
MIC [1, 9]: > 32 mg/L | MIC [2, 10]: > 32 mg/L | MIC [3, 11]: > 32 mg/L | MIC [4, 12]: > 32 mg/L | MIC [5, 13]: > 32 mg/L | IC50 [6, 8]: > 1 µM | IC50 [7, 8]: > 1 µM

CCN(Cc1ccc(-n2ccc(NC(=O)N3CCN(C(=O)C(C)(C)N)[C@H](C)C3)nc2=O)cc1)C1CCC(N)CC1 (stereo partly shown) [Compound 274]
MIC [1, 14]: < 8 mg/L | MIC [2, 15]: 8 to 32 mg/L | MIC [3, 16]: < 8 mg/L | MIC [4, 17]: < 8 mg/L | MIC [5, 18]: < 8 mg/L | IC50 [6, 8]: > 1 µM | IC50 [7, 8]: < 0.5 µM

CNC1CCCN(CCc2ccc(-n3ccc(NC(=O)N4CCN(C(=O)C(C)(C)N)CC4)nc3=O)cc2)CC1 (stereo not shown) [Compound 33]
MIC [1, 9]: 8 to 32 mg/L | MIC [2, 10]: > 32 mg/L | MIC [3, 11]: > 32 mg/L | MIC [4, 12]: > 32 mg/L | MIC [5, 13]: < 8 mg/L | IC50 [6, 8]: > 1 µM | IC50 [7, 8]: 0.5 to 1 µM

CC(C)(N)C(=O)N1CCN(C(=O)Nc2ccn(-c3ccc(CC4(N5CCC(N)CC5)CC4)cc3)c(=O)n2)CC1 [Compound 373]
MIC [1, 14]: < 8 mg/L | MIC [2, 15]: > 32 mg/L | MIC [3, 16]: > 32 mg/L | MIC [4, 17]: 8 to 32 mg/L | MIC [5, 18]: < 8 mg/L | IC50 ([6]; % inhibition @ 1 μM): > 1 µM | IC50 ([7]; % inhibition @ 1 μM): > 1 µM

CCN(Cc1ccc(-n2ccc(NC(=O)N3CCN(C(=O)C(C)(C)N)CC3)nc2=O)cc1)[C@H]1CC[C@H](N)C(C)C1 (stereo partly shown) [Compound 338, hydrochloride salt]
MIC [1]: < 8 mg/L | MIC [2]: > 32 mg/L | MIC [3]: > 32 mg/L | MIC [4]: 8 to 32 mg/L | MIC [5]: < 8 mg/L | IC50 [6, 8]: > 1 µM | IC50 [7, 8]: < 0.5 µM

CC(Cc1ccc(-n2ccc(NC(=O)N3CCN(C(=O)C(C)(C)N)CC3)nc2=O)cc1)N(C)[C@H]1CC[C@@H](N)CC1 (stereo partly shown) [Compound 176]
Sa + bicarb MIC [1, 14]: +++ (An MIC value (μg/mL) that is less than 8 μg/mL) | Pa MIC + bicarb [2, 15]: + (An MIC value (μg/mL) that is 32 μg/mL or greater) | Ab + bicarb MIC [3, 16]: + (An MIC value (μg/mL) that is 32 μg/mL or greater) | Ef + bicarb MIC [4, 17]: +++ (An MIC value (μg/mL) that is less than 8 μg/mL) | E. coli + bicarb MIC [5, 18]: +++ (An MIC value (μg/mL) that is less than 8 μg/mL) | IC50 [6, 8]: > 1 µM | IC50 [7, 8]: < 0.5 µM

CC(Cc1ccc(-n2ccc(NC(=O)N3CCN(C(=O)C(C)(C)N)CC3)nc2=O)cc1)NCC1CNC1 (stereo not shown) [Compound 165]
MIC [1, 14]: > 32 mg/L | MIC [2, 15]: > 32 mg/L | MIC [3, 16]: > 32 mg/L | MIC [4, 17]: > 32 mg/L | MIC [5, 18]: 8 to 32 mg/L | IC50 [6, 8]: > 1 µM | IC50 [7, 8]: > 1 µM
